From paper PMC10222987 (Viruses, 2023)
Like-named read-outs stand apart in the source and are kept apart here.

How the values were obtained:
rgH1N1.WT [1] = details: mouse, in vivo
rgH1N1.PA/I38T [2] = system: rgH1N1.PA/I38T; design: species or system BALB/c mice; details: mouse, in vivo
rgH1N1.NA/H275Y [3] = system: rgH1N1.NA/H275Y; design: species or system BALB/c mice; details: mouse, in vivo
H1N1pdm09.PA/I38T = system: H1N1pdm09.PA/I38T; design: species or system BALB/c mice; details: mouse, in vivo
rgH1N1.PA/I38T [4] = system: rgH1N1.PA/I38T; design: species or system BALB/c mice; details: mouse, in vivo; remark: listed apart in the source
[5] = system: H1N1pdm09 (A/Osaka/129/2009) PA/I38T; type: cell-based, influenza A virus
rgH3N2.WT = details: hamster, in vivo
rgH3N2.PA/I38T = system: rgH3N2.PA/I38T; design: species or system Syrian hamsters; details: hamster, in vivo
rgH1N1.WT [6] = details: mouse, in vivo; remark: listed apart in the source
rgH1N1.PA/I38T [7] = system: rgH1N1.PA/I38T; design: species or system BALB/c mice; details: mouse, in vivo; remark: listed apart in the source
rgH1N1.NA/H275Y [8] = system: rgH1N1.NA/H275Y; design: species or system BALB/c mice; details: mouse, in vivo; remark: listed apart in the source
[9] = system: H1N1 (rgA/WSN/33) NA/H275Y; details: cited from earlier work
[10] = system: H1N1 (rgA/WSN/33) PA/I38T; details: cited from earlier work
[11] = system: H3N2 (rgA/Victoria/3/75) PA/I38T; details: cited from earlier work
[12] = system: H1N1 (rgA/WSN/33) NA/H275Y; details: cited from earlier work; remark: listed apart in the source
[13] = system: H1N1 (rgA/WSN/33) PA/I38T; details: cited from earlier work; remark: listed apart in the source
[14] = system: H3N2 (rgA/Victoria/3/75) PA/I38T; details: cited from earlier work; remark: listed apart in the source

Q: For CCOC(=O)C1=C[C@@H](OC(CC)CC)[C@H](NC(C)=O)[C@@H](N)C1 [oseltamivir phosphate], which “Degree of virus titer reduction” value (rgH1N1.WT [1]) is on record?
A: The value was 1.15 log10TCID50/mL.

Q: And the “Lung virus titers vs vehicle” value (rgH1N1.WT [1])?
A: Its value is “statistically lower compared with vehicle”.

Q: What about the “Lung virus titers vs vehicle” value (rgH1N1.PA/I38T [2]) of the same compound?
A: Its value is “statistically lower compared with vehicle”.

Q: What about the “Degree of virus titer reduction” value (rgH1N1.NA/H275Y [3]) of the same compound?
A: The value was 0.38 log10TCID50/mL.

Q: What about the “Lung virus titers vs vehicle” value (rgH1N1.NA/H275Y [3]) of the same compound?
A: The value was “statistically lower compared with vehicle”.

Q: What about the “Lung virus titers vs vehicle” value (H1N1pdm09.PA/I38T) of the same compound?
A: The value was “statistically lower compared with vehicle”.

Q: What about the Mean virus titer (rgH1N1.PA/I38T [4]) of the same compound?
A: Its Mean virus titer is 3.17 log10 TCID50/mL.

Q: With O=C1c2c(O)c(=O)ccn2N([C@@H]2c3ccccc3SCc3c2ccc(F)c3F)[C@@H]2COCCN12 [baloxavir acid] as the compound, how does the EC50 [5] read?
A: Its EC50 is 15.7 nM.

Q: And the “FC (fold change of EC50 relative to WT)” value [5]?
A: Its value is 25.74 fold.

Q: And the “Antiviral activity vs oseltamivir phosphate (5 mg/kg, twice daily)” value (rgH1N1.WT [1])?
A: Its value is “significantly greater than oseltamivir phosphate”.

Q: What about the Lung virus titer (rgH1N1.WT [1]) of the same compound?
A: Its Lung virus titer is less than 1.5 log10 TCID50/mL.

Q: What about the “Lung virus titers vs vehicle” value (rgH1N1.WT [1]) of the same compound?
A: The value was “significantly lower than vehicle-treated groups at all doses”.

Q: And the “Antiviral effect vs oseltamivir phosphate (5 mg/kg, twice daily)” value (rgH1N1.PA/I38T [2])?
A: Its value is “statistically similar”.

Q: What about the “Lung virus titers vs vehicle” value (rgH1N1.PA/I38T [2]) of the same compound?
A: The value was “significantly lower than vehicle”.

Q: And the “Reduction of virus titers compared with vehicle” value (rgH1N1.PA/I38T [2])?
A: The value was 1.88 log10 TCID50/mL.

Q: And the “Viral rebound (increase in virus titers after dosing)” value (rgH1N1.PA/I38T [2])?
A: The value was “did not observe any increase in virus titers”.

Q: And the “Lung virus titers vs vehicle” value (rgH1N1.PA/I38T [2]; sc, 10 mg/kg)?
A: Its value is “significant decrease in virus titers”.

Q: And the “Antiviral activity vs oseltamivir phosphate” value (rgH1N1.NA/H275Y [3])?
A: The value was “significantly higher antiviral activity compared with oseltamivir phosphate”.

Q: What about the Lung virus titer (rgH1N1.NA/H275Y [3]) of the same compound?
A: The Lung virus titer was less than 1.5 log10 TCID50/mL.

Q: What about the “Lung virus titers vs vehicle, time course” value (H1N1pdm09.PA/I38T) of the same compound?
A: The value was “significantly lower with baloxavir than the vehicle-treated mice”.

Q: And the “Reduction in lung virus titers vs oseltamivir phosphate (5 mg/kg, twice daily)” value (H1N1pdm09.PA/I38T)?
A: Its value is “statistically similar”.

Q: And the “Viral rebound (increase in virus titers after dosing)” value (H1N1pdm09.PA/I38T)?
A: The value was “did not observe any increase in virus titers”.

Q: And the Lung virus titer (H1N1pdm09.PA/I38T; sc, 30 mg/kg)?
A: The Lung virus titer was 1.87 log10TCID50/mL.

Q: And the “Reduction in virus titers vs vehicle and oseltamivir phosphate” value (rgH3N2.WT)?
A: The value was “significantly higher reduction in virus titers”.

Q: And the “Reduction in virus titers vs vehicle and oseltamivir phosphate” value (rgH3N2.PA/I38T)?
A: The value was “statistically significant reduction in virus titers”.

Q: And the “Inhibitory effect on loss of body weight vs vehicle” value (rgH1N1.WT [6])?
A: Its value is “significant inhibitory effect on loss of body weight”.

Q: And the “Inhibitory effect on loss of body weight vs vehicle” value (rgH1N1.PA/I38T [7])?
A: The value was “significant inhibitory effect on loss of body weight”.

Q: What about the “Inhibitory effect on loss of body weight vs oseltamivir phosphate” value (rgH1N1.NA/H275Y [8]) of the same compound?
A: The value was “significantly greater with baloxavir acid than with oseltamivir phosphate”.

Q: What about the “Inhibitory effect on loss of body weight vs vehicle” value (rgH1N1.NA/H275Y [8]) of the same compound?
A: The value was “significant inhibitory effect on loss of body weight”.

Q: And the EC50 [9]?
A: Its EC50 is 0.32 nM.

Q: What about the “FC (fold change of EC50 relative to WT)” value [9] of the same compound?
A: Its value is 0.77 fold.

Q: And the EC50 [10]?
A: The EC50 was 11.4 nM.

Q: What about the “FC (fold change of EC50 relative to WT)” value [10] of the same compound?
A: The value was 27.24 fold.

Q: And the EC50 [11]?
A: Its EC50 is 63.8 nM.

Q: What about the “FC (fold change of EC50 relative to WT)” value [11] of the same compound?
A: Its value is 56.59 fold.

Q: Which “FC (fold change of IC50 relative to WT)” value [12] does the source give for CCC(CC)O[C@@H]1C=C(C(=O)O)C[C@H](N)[C@H]1NC(C)=O [oseltamivir acid] here?
A: Its value is 226.12 fold.

Q: What about the IC50 [12] of the same compound?
A: The IC50 was 182 nM.

Q: What about the “FC (fold change of IC50 relative to WT)” value [13] of the same compound?
A: The value was 1.00 fold.

Q: And the IC50 [13]?
A: Its IC50 is 0.8 nM.

Q: And the “FC (fold change of IC50 relative to WT)” value [14]?
A: Its value is 1.21 fold.

Q: And the IC50 [14]?
A: Its IC50 is 0.16 nM.
